Laboratory results published in patent publication US10478437B2, “Combination therapy to enhance the anticancer efficacy of platinum drugs” (University of Pittsburgh-of the Commonwealth System of …, priority 2014, dated 2019).
“Also recorded” adds a separate entry of the source.

What was measured:
[1] = test system: Bax/Bak wildtype (WT) and double knockout (DKO) MEF cells; experiment: Western blot of Caspase-8, 9 and 3 cleavage in Bax/Bak WT and DKO cells; format: cell-based, mouse; settings: compound 20 μM + cisplatin 10 μM, 20 h, FIG. 8C; in words
Experimental: (§1) Whole cell lysate was prepared by lysing cells in cell lysis buffer (Cell signaling technology) containing complete protease inhibitor (Roche). Cell lysates were then cleared at 15,000 rpm for 15 min at 4° C. The protein content was quantified using a Bio-Rad Protein Assay kit (Bio-Rad Laboratories, Hercules, Calif.). The equal amount of protein was separated on Tris-glycine gels (Invitrogen). The separated proteins were blotted onto a polyvinylidene difluoride membrane and blocked overnight at 4° C. in phosphate-buffered saline containing 0.1% Tween 20 and 10% nonfat dry milk (blocking buffer). Membranes were incubated with primary antibodies in blocking buffer overnight at 4° C. Primary antibodies used were: β-actin from Sigma; Bax, Bak, Caspase-9 and cleaved Caspase-3 from Cell Signaling Technology; phospho-Histone H2AX (Ser 139) and Noxa from Millipore. Membranes were then washed and incubated in peroxidase conjugated anti-rabbit IgG (Sigma) or anti-mouse IgG (Sigma) secondary antibody for 1 h at room temperature. Membranes were developed using SuperSignal West Femto Maximum Sensitivity Substrate (Thermo Fisher Scientific).
In order to understand the role of Bax and Bak in the efficacy of cisplatin and compound 1-6, Bax/Bak double knockout (DKO) SV40-transformed MEF cells were used. […] The cleavage of Caspase-8, 9, and 3 were determined by western blot.

[2] = test system: A2780cis cells; experiment: Short-term (3 h) exposure, cell survival by CellTiter-Blue after 48 h in compound free media; format: cell-based, human; settings: 20 μM compound with various doses of cisplatin, viability after two days, in words
Experimental: FIG. 5. Short-term exposure of A2780cis cells to the combination of cisplatin and compound 1-6 dramatically reduces cell survival. A2780cis cells were treated with increasing doses of cisplatin alone or the combination of cisplatin with compound 1-6 (20 μM) for 3 h. The compounds were then washed out. Cell survival was determined after 48 h incubation of cells in compound free media by CellTiter-Blue assay.
Further analysis was performed with compound 1-6. […] This synergism for the combination of cisplatin and 1-6 was further confirmed using a fresh sample of high chemical purity (98%). This synergistic effect was also observed using the CellTiter-Blue cell viability assay (FIG. 5) under an alternative exposure strategy that mimics in viva drug administration to test the combination effect. Considering the clearance of cisplatin over the time and the duration of exposure of tumor cells to the effective doses of the drugs in vivo (Los et al., 1989), a short-term exposure of cells to the combination of 20 μM of 1-6 with various doses of cisplatin was tested, followed by cell viability assay after two days.

[3] = test system: PEO4, SKOV3, H1299, MDA-MB-231, Ca133 cells; experiment: Western blot of PARP and Caspase-3 cleavage in other cisplatin-resistant cancer cells; format: cell-based, human; settings: 20 h, FIG. 9, in words
Experimental: FIG. 9. The combination of cisplatin and compound 1-6 triggers extensive apoptosis in various types of cisplatin- and multidrug-resistant tumor cells. Cisplatin-resistant cancer cells PEO4 (ovarian), SKOV3 (ovarian), H1299 (lung), MDA-MB-231 (breast), Ca133 (head & neck) were treated with DMSO (untreated), cisplatin (20 μM) alone, compound 1-6 (20 μM) alone, or the combination for 20 h. Cleavage of PARP and Caspase-3 were determined by western blot.
as §1
To evaluate whether the synergistic effects of the disclosed compounds and cisplatin could be extended to other types of cancer cells, breast cancer cells (MDA-MB-231), non-small cell lung carcinoma cells (H-1299), ovarian cancer cells (PEO4 and SKOV3) and head and neck cancer cells (Ca133) were treated with various combinations of cisplatin and compound 1-6 and analyzed for Caspase-3.

[4] = test system: cisplatin-resistant ovarian cancer cell line A2780cis; experiment: Caspase-3/7 activity assay (apoptotic cell death), compound alone or with cisplatin; format: cell-based, human; settings: for caspase-3/7 activity (Lum) with compound and cisplatin (20 μM) / caspase-3/7 activity (Lum) with compound alone: Table 6; for caspase-3/7 activity (Lum) with compound alone: untreated cells 9 ± 1
Procedure, shortened: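 Caspase-3/7 activity in A2780cis cells treated with compound alone or with cisplatin, luminescent Caspase-Glo 3/7 read-out. Apoptotic morphology is checked microscopically just before measurement.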

[5] = test system: A2780cis cells; experiment: Western blot of caspase/PARP cleavage, Noxa induction, RPA32 and H2AX phosphorylation; format: cell-based, human; settings: compound 20 μM + cisplatin 20 μM
Experimental: as §1
A2780cis cells were treated with cisplatin alone, compounds alone or in combination with cisplatin at indicated concentrations for 20 h to analyze apoptotic cell death in response to treatment. […] Expression and cleavage of several major caspases (Caspase-8, Caspase-9 and Caspase-3), as well as poly(ADP-ribose) polymerase (PARP) and NOXA. A2780cis cells were treated with cisplatin (20 μM) alone, compounds (20 μM) alone or in combination with cisplatin for 20 h.
To determine the effects of the compounds on DNA damage and mitochondrial dysfunction, A2780cis cells were treated with cisplatin (20 μM) alone or the combination of cisplatin with 20 μM of compound 1-6. Replication protein A (RPA) is a single strand-specific DNA-binding protein, consisting of three subunits, RPA70, RPA32, and RPA14. RPA32 is phosphorylated in response to DNA replication stress. Western blot analysis was performed to evaluate the phosphorylation of RPA32 and histone H2AX, the induction of Noxa expression and cleavage of caspase-3. […] A2780cis cells were treated with cisplatin (50 μM) alone, 1-6 (50 μM) alone or the combination of cisplatin and compound 1-6 for 4 h. The oxygen consumption rate (OCR) was measured by a Seahorse extracellular flux analyzer.

## CCOCCCn1c(=S)[nH]c2c(C)cccc2c1=O [Compound 1-6]
[1]
  cleavage of caspases in Bax/Bak WT and DKO MEF cells, combination with cisplatin: cleavage of Caspase 3 and 9 independent of Bax or Bak activity
[2]
  effect of 3 hr exposure to the combination with cisplatin on proliferation: severe long-term proliferation defect
[3]; 20 μM alone
  cell death after single compound exposure: minimal effect in inducing cell death
[3]; compound 20 μM + cisplatin 20 μM
  cleavage of Caspase 3 and PARP, combination with cisplatin: cleavage of Caspase 3 and PARP was observed
[4]; FIG. 7A and Table 6, in words
  activation of Caspase-3/7 in combination with cisplatin compared to mdivi-1: more effective; also recorded: more potent than mdivi-1
[4]; Table 1, compound 20 μM with 20 μM cisplatin, 20 h
  caspase-3/7 activity (Lum), compound with cisplatin: 145 ± 6 Lum
[4]; Table 1, compound 20 μM, 20 h, mean ± S.D. of triplicates
  caspase-3/7 activity (Lum), compound alone: 12 ± 0 Lum
[4]; Table 2, compound 20 μM, 20 h
  caspase-3/7 activity (Lum), compound alone: 12 ± 0 Lum
[4]; compound 5 μM + cisplatin 20 μM, 20 h
  caspase-3/7 activity (Lum) with compound and cisplatin (20 μM): 22 ± 1 Lum
[4]; compound 5 μM, 20 h
  caspase-3/7 activity (Lum) with compound alone: 10 ± 1 Lum
[4]; compound 10 μM + cisplatin 20 μM, 20 h
  caspase-3/7 activity (Lum) with compound and cisplatin (20 μM): 67 ± 3 Lum
[4]; compound 10 μM, 20 h
  caspase-3/7 activity (Lum) with compound alone: 10 ± 1 Lum
[4]; compound 20 μM + cisplatin 20 μM, 20 h
  caspase-3/7 activity (Lum) with compound and cisplatin (20 μM): 105 ± 7 Lum
[4]; compound 20 μM, 20 h
  caspase-3/7 activity (Lum) with compound alone: 11 ± 2 Lum
[4]; alone or in the presence of cisplatin, in words
  activity in the screen (Caspase-3/7 activity and microscopic examination), active / inactive: active
[4]; in words
  Caspase-3/7 activity upon combination with cisplatin compared to cisplatin alone or compound alone: increase in Caspase-3/7 activity
[5]; 20 h, FIG. 7B, in words
  cleavage of caspases and PARP, induction of Noxa in combination with cisplatin: cleavage of Caspase-8, 9, 3, PARP and the induction of Noxa
[5]; FIG. 8A
  time of enhanced phosphorylation of RPA32 post treatment, combination with cisplatin: ≤ 4 h
